{"source": "paper PMC7878787", "about": "(Scientific Reports, 2021)", "key": {"[1]": {"target": "T1, GRPR (Mus musculus, UniProt P21729)", "T1 construct": "Mice with GRPR-expressing PC-3 xenografts (implanted 21 d before the experiment) were used for all in vivo studies; from tissue; host or cells: PC-3 xenograft tumors in female Balb/c nu/nu mice", "T1 sequence (P21729 whole entry)": "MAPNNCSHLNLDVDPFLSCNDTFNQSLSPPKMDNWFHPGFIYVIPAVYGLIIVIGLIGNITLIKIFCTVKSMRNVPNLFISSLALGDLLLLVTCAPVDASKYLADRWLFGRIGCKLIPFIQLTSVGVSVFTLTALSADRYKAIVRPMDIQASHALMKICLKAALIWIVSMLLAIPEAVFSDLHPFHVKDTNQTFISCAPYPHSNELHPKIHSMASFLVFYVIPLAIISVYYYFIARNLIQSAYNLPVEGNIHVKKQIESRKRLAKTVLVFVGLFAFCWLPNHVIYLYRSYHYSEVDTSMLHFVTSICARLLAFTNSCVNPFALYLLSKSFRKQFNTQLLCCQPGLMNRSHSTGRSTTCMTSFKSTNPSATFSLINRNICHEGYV", "test": "In vivo specificity test (co-injection of non-labeled peptide)", "design": "species or system Balb/c nu/nu mice", "details": "3 h pi, co-injection of 10 nmol non-labeled NOTA-PEG2-RM26, p < 0.002", "procedure": "For the in vivo specificity test, mice in the blocking group were co-injected with 10 nmol of non-labeled NOTA-PEG2-RM26 and sacrificed 3 h pi and samples were collected according to the protocol described above."}, "[2]": {"test": "Biodistribution in mice bearing PC-3 xenografts", "type": "in vivo, Balb/c nu/nu mice", "details": "female, Balb/c nu/nu, mouse, iv, total radioactivity, 3 h pi, 40–50 pmol iv, female Balb/c nu/nu mice with PC-3 xenografts, average ± SD, n = 3–4", "procedure": "(§1) Mice were sacrificed 3 h and 22 h pi by intraperitoneal injection of a lethal dose of Ketalar-Rompun solution (10 mg/mL Ketaminol (Intervet) and 1 mg/mL Rompun (Bayer); 20 μL solution/gram of body weight). Tumors were collected as well as samples of blood, lung, liver, spleen, pancreas, stomach, small intestine, kidneys, muscle, and bone. Gastrointestinal (GI) tract and carcass were also collected. Samples were weighed, and measured for activity content in the automated gamma counter. Corrections for background, spill-over and decay were performed for all measurements.\n(§2) Biodistribution of [^68Ga]Ga-NOTA-PEG2-RM26 3 h pi was included for comparison. Mice were therefore injected with 40–50 pmol (250 kBq) ^68Ga-NOTA-PEG2-RM26, euthanized 3 h pi and samples were collected according to the protocol described above."}, "[3]": {"tested_on": "PC-3 cells", "test": "Cellular processing (membrane-bound vs internalized activity)", "type": "cell-based, human", "details": "2 nM, continuous incubation 24 h, 37 °C, n = 3", "procedure": "At pre-determined time points (1 h, 2 h, 4 h, 24 h) cells were incubated with 0.2 M glycine buffer (with 0.15 M NaCl, 4 M Urea, pH 2) for 5 min on ice to collect the membrane-bound activity. Thereafter, cells were incubated at 37 °C for 30 min with 1 M NaOH and collected. Activity content in those samples was considered internalized activity."}, "[4]": {"tested_on": "PC-3 xenografts", "test": "Biodistribution in mice bearing PC-3 xenografts", "type": "in vivo, Balb/c nu/nu mice", "procedure": "as §1, §2"}, "[5]": {"test": "Analysis of blood metabolites (radio-HPLC of plasma)", "type": "in vivo", "details": "5 min pi, NMRI mice; for radiometal associated with intact peptide in blood plasma: 1.5 nmol (6.75–7.3 MBq)", "procedure": "NMRI Mice were injected with 1.5 nmol (6.75–7.3 MBq) [^68Ga]Ga-NOTA-PEG2-RM26 and sacrificed 5 min pi by cervical dislocation. Immediately after blood was collected by heart puncture into a pre-chilled heparinized Eppendorf tube. Blood samples were centrifuged (10000RCF, 10 min at 4 °C), plasma was collected and mixed with equal amount of ice cold acetonitrile. The mixture was centrifuged (15,000 RCF, 10 min, 4 °C), the supernatant was collected and sterile filtered with a 0.2 µm PTFE syringe filter. The filtrate was analyzed on HPLC according to the method described above."}}, "note": "Like-named read-outs stand apart in the source and are kept apart here."}
{"compound": "CC(C)C[C@H](NC(=O)C[C@H](O)[C@H](CC(C)C)NC(=O)[C@H](Cc1c[nH]cn1)NC(=O)CNC(=O)[C@@H](NC(=O)[C@H](C)NC(=O)[C@H](Cc1c[nH]c2ccccc12)NC(=O)[C@H](CCC(N)=O)NC(=O)[C@@H](Cc1ccccc1)NC(=O)COCCOCCNC(=O)CN1CCN(CC(=O)O)CCN(CC(=O)O)CC1)C(C)C)C(N)=O", "note": "[[^66Ga]Ga-NOTA-PEG2-RM26, metal not drawn]", "values": [{"measurement": "uptake in pancreas, blocked vs non-blocked", "setting": "[1]", "value": "significant decrease"}, {"measurement": "tissue uptake at 3 h", "setting": "[2]; bone, read-out: Uptake, Bone", "value": "0.5 ± 0.3", "unit": "%ID/g"}, {"measurement": "tissue uptake at 3 h", "setting": "[2]; kidney, read-out: Uptake, Kidney", "value": "1.7 ± 0.4", "unit": "%ID/g"}, {"measurement": "tissue uptake at 3 h", "setting": "[2]; liver, read-out: Uptake, Liver", "value": "0.28 ± 0.06", "unit": "%ID/g"}, {"measurement": "tissue uptake at 3 h", "setting": "[2]; lung, read-out: Uptake, Lung", "value": "0.5 ± 0.4", "unit": "%ID/g"}, {"measurement": "tissue uptake at 3 h", "setting": "[2]; pancreas, read-out: Uptake, Pancreas", "value": "3.4 ± 0.7", "unit": "%ID/g"}, {"measurement": "tissue uptake at 3 h", "setting": "[2]; stomach, read-out: Uptake, Stomach", "value": "1.9 ± 0.4", "unit": "%ID/g"}, {"measurement": "tissue uptake at 3 h", "setting": "[2]; tumor (PC-3 xenograft), read-out: Uptake, Tumor", "value": "14 ± 1", "unit": "%ID/g"}, {"measurement": "tissue uptake at 3 h", "setting": "[2]; whole blood, read-out: Uptake, Blood", "value": "0.15 ± 0.06", "unit": "%ID/g"}, {"measurement": "fraction of internalized activity, of cell-associated activity", "setting": "[3]", "value": 17, "unit": "%"}]}
{"compound": "CC(C)C[C@H](NC(=O)C[C@H](O)[C@H](CC(C)C)NC(=O)[C@H](Cc1c[nH]cn1)NC(=O)CNC(=O)[C@@H](NC(=O)[C@H](C)NC(=O)[C@H](Cc1c[nH]c2ccccc12)NC(=O)[C@H](CCC(N)=O)NC(=O)[C@@H](Cc1ccccc1)NC(=O)COCCOCCNC(=O)CN1CCN(CC(=O)O)CCN(CC(=O)O)CC1)C(C)C)C(N)=O", "note": "[[^66Ga]Ga-NOTA-PEG2-RM26] [metal not drawn]", "values": [{"measurement": "change of uptake in bone during the observation period", "setting": "[4]; 3 to 22 h pi", "value": "increased"}, {"measurement": "activity retained in tumors from 3 to 22 h pi", "setting": "[4]; PC-3 xenografts", "value": "approximately 50%"}, {"measurement": "change of uptake in GRPR-expressing pancreas from 3 to 22 h pi", "setting": "[4]; p < 0.004", "value": "decreased significantly"}]}
{"compound": "CC(C)C[C@H](NC(=O)C[C@H](O)[C@H](CC(C)C)NC(=O)[C@H](Cc1c[nH]cn1)NC(=O)CNC(=O)[C@@H](NC(=O)[C@H](C)NC(=O)[C@H](Cc1c[nH]c2ccccc12)NC(=O)[C@H](CCC(N)=O)NC(=O)[C@@H](Cc1ccccc1)NC(=O)COCCOCCNC(=O)CN1CCN(CC(=O)O)CCN(CC(=O)O)CC1)C(C)C)C(N)=O", "note": "[[^68Ga]Ga-NOTA-PEG2-RM26, metal not drawn]", "values": [{"measurement": "free gallium, share of activity in blood plasma", "setting": "[5]", "value": 6, "unit": "%"}, {"measurement": "radiometal associated with intact peptide in blood plasma", "setting": "[5]", "value": "up to 57%"}, {"measurement": "radiometal associated with intact peptide in blood plasma", "setting": "[5]; listed as gallium labeled NOTA-PEG2-RM26", "value": "up to 60%"}]}
